Several values for one entry are separate records, joined by “and”; a condition that tells them apart may be missing. Equal entries are not always repeated. Inconclusive results and toxic doses are left out. Cut-off read from the data, not from the text of the source: active = T/C of 150% or more; inactive = T/C below 125%.
Test system: L1210 leukemia ip in BDF1 mice, survival T/C
Assay: NCI In Vivo Anticancer Drug Screen. Data for tumor model L1210 Leukemia (intraperitoneal) in B6D2F1 (BDF1) mice
Conditions: endpoint: mean survival time, higher = longer survival
In short: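 Transplantable tumor model; survival measured in treated vs vehicle control mice. Value = treated/control.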

[1] = dose: 100.0 mg/kg/injection, schedule: Q01DX009 (ip), vehicle: saline with Tween-80
[2] = dose: 100.0 mg/kg/injection, schedule: Q04DX003 (ip), vehicle: saline with Tween-80
[3] = dose: 200.0 mg/kg/injection, schedule: Q01DX009 (ip), vehicle: saline with Tween-80
[4] = dose: 200.0 mg/kg/injection, schedule: Q04DX003 (ip), vehicle: saline with Tween-80
[5] = dose: 400.0 mg/kg/injection, schedule: Q04DX003 (ip), vehicle: saline with Tween-80
[6] = dose: 100.0 mg/kg/injection, schedule: Q01DX001 (ip), vehicle: carboxymethylcellulose (CMC)
[7] = dose: 200.0 mg/kg/injection, schedule: Q01DX001 (ip), vehicle: carboxymethylcellulose (CMC)
[8] = dose: 400.0 mg/kg/injection, schedule: Q01DX001 (ip), vehicle: carboxymethylcellulose (CMC)
[9] = dose: 100.0 mg/kg/injection, schedule: Q01DX009 (ip), vehicle: saline
[10] = dose: 200.0 mg/kg/injection, schedule: Q01DX009 (ip), vehicle: saline
[11] = dose: 100.0 mg/kg/injection, schedule: Q01DX001 (ip), vehicle: Klucel (hydroxypropylcellulose) (HPC)
[12] = dose: 200.0 mg/kg/injection, schedule: Q01DX001 (ip), vehicle: Klucel (hydroxypropylcellulose) (HPC)
[13] = dose: 400.0 mg/kg/injection, schedule: Q01DX001 (ip), vehicle: Klucel (hydroxypropylcellulose) (HPC)
[14] = dose: 100.0 mg/kg/injection, schedule: Q01DX001 (ip), vehicle: saline
[15] = dose: 200.0 mg/kg/injection, schedule: Q01DX001 (ip), vehicle: saline
[16] = dose: 400.0 mg/kg/injection, schedule: Q01DX001 (ip), vehicle: saline
[17] = dose: 100.0 mg/kg/injection, schedule: Q04DX002 (ip), vehicle: Klucel (hydroxypropylcellulose) (HPC)
[18] = dose: 50.0 mg/kg/injection, schedule: Q01DX009 (ip), vehicle: saline
[19] = dose: 200.0 mg/kg/injection, schedule: Q04DX003 (ip), vehicle: Klucel (hydroxypropylcellulose) (HPC)
[20] = dose: 100.0 mg/kg/injection, schedule: Q01DX009 (ip), vehicle: Klucel (hydroxypropylcellulose) (HPC)
[21] = dose: 100.0 mg/kg/injection, schedule: Q04DX003 (ip), vehicle: Klucel (hydroxypropylcellulose) (HPC)
[22] = dose: 200.0 mg/kg/injection, schedule: Q01DX009 (ip), vehicle: Klucel (hydroxypropylcellulose) (HPC)
[23] = dose: 400.0 mg/kg/injection, schedule: Q01DX009 (ip), vehicle: Klucel (hydroxypropylcellulose) (HPC)
[24] = dose: 400.0 mg/kg/injection, schedule: Q04DX003 (ip), vehicle: Klucel (hydroxypropylcellulose) (HPC)
[25] = dose: 200.0 mg/kg/injection, schedule: Q04DX002 (ip), vehicle: Klucel (hydroxypropylcellulose) (HPC)
[26] = dose: 400.0 mg/kg/injection, schedule: Q04DX002 (ip), vehicle: Klucel (hydroxypropylcellulose) (HPC)
[27] = dose: 100.0 mg/kg/injection, schedule: Q01DX001 (ip), vehicle: other
[28] = dose: 200.0 mg/kg/injection, schedule: Q01DX001 (ip), vehicle: other
[29] = dose: 400.0 mg/kg/injection, schedule: Q01DX001 (ip), vehicle: other

Measured: T/C

O=C(Nc1ccc2c(c1)OCO2)O/N=C\c1cccnc1
inactive: dose: 12.5 mg/kg/injection, schedule: Q01DX009 (ip), vehicle: saline with Tween-80 97 % of control | dose: 25.0 mg/kg/injection, schedule: Q01DX009 (ip), vehicle: saline with Tween-80 105 % of control | dose: 50.0 mg/kg/injection, schedule: Q01DX009 (ip), vehicle: saline with Tween-80 100 % of control | [1] 86 % of control | [2] 100 % of control | [3] 91 % of control | [4] 113 % of control | [5] 111 % of control

CCCC(CCC)(CCC)CCN
inactive: dose: 5.0 mg/kg/injection, schedule: Q01DX Z (ip), vehicle: carboxymethylcellulose (CMC) 91 % of control | dose: 10.0 mg/kg/injection, schedule: Q01DX Z (ip), vehicle: carboxymethylcellulose (CMC) 112 % of control | dose: 15.0 mg/kg/injection, schedule: Q01DX Z (ip), vehicle: carboxymethylcellulose (CMC) 106 % of control | dose: 20.0 mg/kg/injection, schedule: Q01DX Z (ip), vehicle: carboxymethylcellulose (CMC) 101 % of control

CNC(=O)Nc1ccc(C)cc1
inactive: [6] 108 % of control | [7] 111 % of control | [8] 111 % of control

COc1cc(Br)c(CCC(=O)O)cc1OC
inactive: [9] 97 % of control | [2] 96 % of control | [10] 94 % of control | [4] 114 % of control | dose: 400.0 mg/kg/injection, schedule: Q01DX009 (ip), vehicle: saline 100 % of control | [5] 91 % of control

OCCNc1ccc(C2=NCCO2)cc1
inactive: [1] 106 % of control | [3] 97 % of control | dose: 400.0 mg/kg/injection, schedule: Q01DX009 (ip), vehicle: saline with Tween-80 91 % of control

NC(=O)N1C(=O)CC(Sc2ccc(Cl)cc2)C1=O (centres undefined)
inactive: [6] 97 % of control | [7] 100 % of control | [8] 105 % of control

CCOC(=O)c1cnc(C)nc1N
inactive: [11] 97 % of control | [12] 97 % of control | [13] 92 % of control

Cc1cc(=O)[nH]c(=S)[nH]1
inactive: [11] 90 % of control | [12] 101 % of control | [13] 92 % of control

O=C(Nc1ccccc1)OC1C=CC2CCC1C2 (centres undefined)
inactive: [14] 90 % of control | [15] 87 % of control | [16] 87 % of control

CCCP(C)(=S)CCC
inactive: dose: 25.0 mg/kg/injection, schedule: Q04DX002 (ip), vehicle: Klucel (hydroxypropylcellulose) (HPC) 112 % of control | dose: 50.0 mg/kg/injection, schedule: Q04DX002 (ip), vehicle: Klucel (hydroxypropylcellulose) (HPC) 108 % of control | [17] 112 % of control

NC(=O)OCCCc1ccccc1
inactive: dose: 12.5 mg/kg/injection, schedule: Q01DX009 (ip), vehicle: saline 112 % of control | dose: 25.0 mg/kg/injection, schedule: Q01DX009 (ip), vehicle: saline 105 % of control | dose: 25.0 mg/kg/injection, schedule: Q04DX003 (ip), vehicle: Klucel (hydroxypropylcellulose) (HPC) 101 % of control | [18] 103 % of control | dose: 50.0 mg/kg/injection, schedule: Q04DX003 (ip), vehicle: Klucel (hydroxypropylcellulose) (HPC) 104 % of control | [9] 112 % of control | [10] 105 % of control | [19] 98 % of control

CC(C)(C)OC(=O)C(CSSCC(NC(=O)OCc1ccccc1)C(=O)OC(C)(C)C)NC(=O)OCc1ccccc1 (centres undefined)
inactive: [20] 98 % of control | [21] 98 % of control | [22] 107 % of control | [19] 96 % of control | [23] 107 % of control | [24] 96 % of control

Cc1ccc(NC(=O)c2cccc(F)c2)cc1Cl
inactive: [11] 97 % of control | [20] 94 % of control and 92 % of control | [17] 101 % of control and 104 % of control | [12] 100 % of control | [22] 105 % of control and 92 % of control | [25] 96 % of control and 104 % of control | [13] 100 % of control | [23] 97 % of control and 92 % of control | [26] 104 % of control and 109 % of control

CCOCCOCCOC(C)Oc1cccc(C(=O)OCC)c1 (centres undefined)
inactive: dose: 100.0 mg/kg/injection, schedule: Q04DX002 (ip), vehicle: saline with Tween-80 103 % of control | dose: 200.0 mg/kg/injection, schedule: Q04DX002 (ip), vehicle: saline with Tween-80 103 % of control | dose: 400.0 mg/kg/injection, schedule: Q04DX002 (ip), vehicle: saline with Tween-80 100 % of control

CC1(C)C2CCC1(C)C(NCc1cc(Br)cc(Br)c1O)C2 (centres undefined)
inactive: [21] 92 % of control | [19] 97 % of control | [24] 98 % of control

COc1ccc2c(c1)CCC(CC(C)=O)C2=O (centres undefined)
inactive: dose: 100.0 mg/kg/injection, schedule: Q04DX003 (ip), vehicle: saline sonified 99 % of control | dose: 200.0 mg/kg/injection, schedule: Q04DX003 (ip), vehicle: saline sonified 90 % of control | dose: 400.0 mg/kg/injection, schedule: Q04DX003 (ip), vehicle: saline sonified 89 % of control

C[N+](C)(C)c1ccc(N=C=S)cc1
inactive: dose: 12.5 mg/kg/injection, schedule: Q01DX009 (ip), vehicle: Klucel (hydroxypropylcellulose) (HPC) 94 % of control | dose: 25.0 mg/kg/injection, schedule: Q01DX009 (ip), vehicle: Klucel (hydroxypropylcellulose) (HPC) 105 % of control | dose: 50.0 mg/kg/injection, schedule: Q01DX009 (ip), vehicle: Klucel (hydroxypropylcellulose) (HPC) 103 % of control

O=C(N/N=C\c1cc(=O)[nH]c(=O)[nH]1)c1ccccc1
inactive: [14] 100 % of control

CN(C)P1(=O)OCCN1N (centres undefined)
inactive: [18] 105 % of control | [9] 117 % of control | dose: 100.0 mg/kg/injection, schedule: Q04DX003 (ip), vehicle: saline 104 % of control | [10] 103 % of control | dose: 200.0 mg/kg/injection, schedule: Q04DX003 (ip), vehicle: saline 96 % of control

O=C(OC1OCC(OCc2ccccc2)C(OCc2ccccc2)C1OCc1ccccc1)c1ccc([N+](=O)[O-])cc1 (centres undefined)
inactive: [27] 88 % of control | [28] 90 % of control | [29] 90 % of control

OC1c2ccccc2C(O)C2C3C=CC(CC3)C12 (centres undefined)
inactive: dose: 50.0 mg/kg/injection, schedule: Q01DX001 (ip), vehicle: carboxymethylcellulose (CMC) 93 % of control | [6] 98 % of control | [7] 98 % of control | [8] 98 % of control

CCC(C)(C1CCC(=O)CC1)C1CCC(=O)CC1
inactive: [14] 94 % of control | [15] 100 % of control | [16] 93 % of control

CC[N+](C)(C)CC(C)C
inactive: dose: 75.0 mg/kg/injection, schedule: Q01DX001 (ip), vehicle: saline 104 % of control | dose: 150.0 mg/kg/injection, schedule: Q01DX001 (ip), vehicle: saline 107 % of control

CCN1C(=O)CSC1=S
inactive: [14] 101 % of control | dose: 100.0 mg/kg/injection, schedule: Q04DX003 (ip), vehicle: other 92 % of control and 96 % of control | [15] 101 % of control | dose: 200.0 mg/kg/injection, schedule: Q04DX003 (ip), vehicle: other 110 % of control and 89 % of control | [16] 102 % of control | dose: 400.0 mg/kg/injection, schedule: Q04DX003 (ip), vehicle: other 96 % of control

CC(=O)n1c(O)c(N=Nc2ccccc2[N+](=O)[O-])c2ccccc21
inactive: [27] 92 % of control | [28] 93 % of control | [29] 98 % of control

O=C(Nc1cccc(Cl)c1)Oc1ccc(C2CCCCC2)cc1
inactive: [17] 104 % of control | [25] 99 % of control | [26] 101 % of control
